By Ki is commonly meant the equilibrium dissociation constant of an inhibitor or competing ligand from its target.

Like-named read-outs stand apart in the source and are kept apart here. Marks after values point to notes of the source that are not given here.

Assay [1] concerns the target T1, human 5-HT1A receptor (Homo sapiens, UniProt P08908).
T1 construct: purchased PerkinElmer; host or cells: CHO-K1
T1 sequence (P08908 1-422): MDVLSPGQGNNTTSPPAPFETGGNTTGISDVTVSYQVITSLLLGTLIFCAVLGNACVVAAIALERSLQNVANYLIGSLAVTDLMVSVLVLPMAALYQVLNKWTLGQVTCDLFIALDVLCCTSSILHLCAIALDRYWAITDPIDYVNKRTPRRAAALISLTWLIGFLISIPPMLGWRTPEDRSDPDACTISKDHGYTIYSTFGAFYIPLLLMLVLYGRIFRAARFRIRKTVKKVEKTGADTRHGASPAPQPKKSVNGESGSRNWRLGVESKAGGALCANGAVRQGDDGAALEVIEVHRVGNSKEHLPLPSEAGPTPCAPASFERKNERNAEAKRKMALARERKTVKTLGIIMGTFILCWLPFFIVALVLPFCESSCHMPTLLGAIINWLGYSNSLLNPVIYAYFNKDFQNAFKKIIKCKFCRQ
Nature of the assay: 5-HT1A receptor radioligand binding ([3H]-8-OH-DPAT, CHO-K1 membranes). The settings on record: displacement of [3H]-8-OH-DPAT, mean ± SEM of three experiments, NC = not converged. Here is the method: (§1) Each compound was tested in 6 concentrations from 10–5 to 10–10 M (final concentration).
(§2) All assays were carried out in duplicates.

Assay [2] concerns the target T2, human serotonin transporter (Homo sapiens, UniProt P31645).
T2 construct: purchased PerkinElmer; host or cells: HEK-293
Kind of assay: Serotonin transporter radioligand binding ([3H]-imipramine, HEK-293 membranes). The settings on record: displacement of [3H]-imipramine, HEK-293 membranes; mean ± SEM of three experiments; read-out: Ki ± SEM SERT. As to the method: as §1, §2

In assay [3] the target is T3, 5-HT2A receptor (Rattus norvegicus, UniProt P14842).
T3 construct: and for the native 5-HT2A receptor; from tissue; host or cells: rat cortex
T3 sequence (P14842 whole entry): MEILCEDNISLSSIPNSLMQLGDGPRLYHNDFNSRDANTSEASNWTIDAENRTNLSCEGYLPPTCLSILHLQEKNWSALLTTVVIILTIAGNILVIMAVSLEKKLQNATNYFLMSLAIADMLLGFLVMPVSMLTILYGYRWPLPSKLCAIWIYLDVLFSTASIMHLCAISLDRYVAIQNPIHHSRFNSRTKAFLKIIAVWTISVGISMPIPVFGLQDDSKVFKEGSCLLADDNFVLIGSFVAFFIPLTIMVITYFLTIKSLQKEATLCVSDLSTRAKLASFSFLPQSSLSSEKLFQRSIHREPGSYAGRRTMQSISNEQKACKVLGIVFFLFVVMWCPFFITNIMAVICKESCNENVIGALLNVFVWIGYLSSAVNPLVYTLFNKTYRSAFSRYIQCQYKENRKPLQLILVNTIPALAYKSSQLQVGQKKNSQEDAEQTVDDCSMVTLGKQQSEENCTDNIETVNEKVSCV
Nature of the assay: 5-HT2A binding assay ([3H]-ketanserin, rat cortex). The settings on record: read-out: Ki ± SEM 5-HT2A. As to the method:
(§3) Specifically, we assessed the displacement of [^3H]-raclopride, [^3H]-LSD, and [^3H]-5-CT from the cloned human D2L, 5-HT6, and 5-HT7 receptor, respectively, stably expressed in HEK293 cells, and [^3H]-ketanserin from the 5-HT2A receptor from the rat cortex.
Tissue preparations (rat cortex) and competition binding experiments for 5-HT2A receptors were carried out according to a previously described, standard technique using 0.5 nM of [^3H]-ketanserin as the radioligand and 10 μM of methysergide to determine non-specific binding. Following 20 min of incubation, the samples containing receptor homogenates and the investigated compounds (7–9 concentrations run in triplicate) were rapidly filtered under vacuum through GF/B glass fibre filters; the filters were washed extensively with an ice-cold buffer using a Brandel harvester. Bound radioactivity was measured by scintillation counting using a liquid scintillation cocktail. The inhibition constants (Ki) were calculated using the Cheng–Prusoff equation. Results are expressed as the means of at least three separate experiments.

The target of assay [4] is T4, human 5-HT6 receptor (Homo sapiens, UniProt P50406).
T4 construct: expressed in transfected cells; host or cells: HEK293
T4 sequence (P50406 whole entry): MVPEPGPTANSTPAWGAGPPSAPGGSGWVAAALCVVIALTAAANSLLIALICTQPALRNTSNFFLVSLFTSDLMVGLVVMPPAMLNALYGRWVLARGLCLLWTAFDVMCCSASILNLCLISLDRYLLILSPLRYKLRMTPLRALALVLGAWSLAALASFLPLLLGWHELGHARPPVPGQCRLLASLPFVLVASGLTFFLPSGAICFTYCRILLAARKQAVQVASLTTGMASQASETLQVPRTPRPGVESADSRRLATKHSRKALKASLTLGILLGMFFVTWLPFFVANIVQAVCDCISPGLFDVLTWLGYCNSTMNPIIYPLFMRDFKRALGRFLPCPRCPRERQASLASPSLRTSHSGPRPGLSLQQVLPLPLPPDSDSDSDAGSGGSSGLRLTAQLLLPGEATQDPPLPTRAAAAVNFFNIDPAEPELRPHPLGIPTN
Nature of the assay: 5-HT6 receptor binding ([3H]-LSD, HEK293 cells). As to conditions: cloned human receptor in HEK293, read-out: Ki ± SEM 5-HT6. Here is the method: as §3
(§4) For membrane preparation, cells were subcultured in 10 cm-diameter dishes, grown to 90% confluence, washed twice with prewarmed to 37 °C phosphate buffered saline (PBS) and pelleted by centrifugation (200 g) in PBS containing 0.1 mM EDTA and 1 mM dithiothreitol. Prior to membrane preparation, pellets were stored at −80 °C.
(§5) Cell pellets were thawed and homogenised in 20 volumes of assay buffer using an Ultra Turrax tissue homogeniser and centrifuged twice at […] for 20 min at 4 °C, with incubation for 15 min at 37 °C in between. The composition of the assay buffers was as follows: for 5-HT6R, 50 mM Tris-HCl, 0.5 mM EDTA and 4 mM MgCl2; and for 5-HT7bR, 50 mM Tris-HCl, 4 mM MgCl2, 10 μM pargyline and 0.1% ascorbate. All assays were incubated in a total volume of 200 μL in 96-well microtitre plates for 1 h at 37 °C. The process of equilibration was terminated by rapid filtration through Unifilter plates with a 96-well cell harvester, and radioactivity retained on the filters was quantified on a Microbeta plate reader. For displacement studies, the assay samples contained radioligands such as 2 nM [^3H]-LSD (85.2 Ci/mmol for 5-HT6R) or 0.6 nM [^3H]-5-CT (39.2 Ci/mmol) for 5-HT7R. Non-specific binding was defined using 10 μM methiothepine in the 5-HT6R or 5-HT7R binding experiments, respectively. Each compound was tested in triplicate at 7–8 concentrations (10^−11–10^−4 M). The inhibition constants (Ki) were calculated using the Cheng–Prusoff equation. Membrane preparation and general assay procedures for cloned receptors were adjusted to a 96-microwell format based on protocols previously described by us.

In assay [5] the target is T5, human 5-HT7b receptor (Homo sapiens, UniProt P34969).
T5 construct: expressed in transfected cells; host or cells: HEK293
T5 sequence (P34969 1-432 limits assumed): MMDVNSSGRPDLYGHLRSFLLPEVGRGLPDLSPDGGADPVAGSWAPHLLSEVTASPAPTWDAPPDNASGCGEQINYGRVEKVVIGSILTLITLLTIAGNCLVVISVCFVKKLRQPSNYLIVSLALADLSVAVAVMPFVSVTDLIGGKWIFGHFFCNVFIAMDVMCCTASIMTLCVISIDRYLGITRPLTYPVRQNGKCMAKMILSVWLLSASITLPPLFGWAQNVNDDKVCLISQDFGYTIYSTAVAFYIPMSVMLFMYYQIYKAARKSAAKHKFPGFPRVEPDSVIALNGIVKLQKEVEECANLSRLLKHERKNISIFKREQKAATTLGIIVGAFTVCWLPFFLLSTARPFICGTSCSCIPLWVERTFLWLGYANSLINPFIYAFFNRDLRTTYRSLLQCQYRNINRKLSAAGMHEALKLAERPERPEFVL
Nature of the assay: 5-HT7 receptor binding ([3H]-5-CT, HEK293 cells). The settings on record: cloned human receptor in HEK293, read-out: Ki ± SEM 5-TH7. As to the method: as §3, §4, §5

The target of assay [6] is human D2 receptor (Homo sapiens, UniProt P14416). Nature of the assay: D2 receptor binding assay. As to conditions: cloned human D2 receptor; read-out: Ki ± SEM D2. As to the method: as §3, §1, §2
Sequence of human D2 receptor (P14416 whole entry): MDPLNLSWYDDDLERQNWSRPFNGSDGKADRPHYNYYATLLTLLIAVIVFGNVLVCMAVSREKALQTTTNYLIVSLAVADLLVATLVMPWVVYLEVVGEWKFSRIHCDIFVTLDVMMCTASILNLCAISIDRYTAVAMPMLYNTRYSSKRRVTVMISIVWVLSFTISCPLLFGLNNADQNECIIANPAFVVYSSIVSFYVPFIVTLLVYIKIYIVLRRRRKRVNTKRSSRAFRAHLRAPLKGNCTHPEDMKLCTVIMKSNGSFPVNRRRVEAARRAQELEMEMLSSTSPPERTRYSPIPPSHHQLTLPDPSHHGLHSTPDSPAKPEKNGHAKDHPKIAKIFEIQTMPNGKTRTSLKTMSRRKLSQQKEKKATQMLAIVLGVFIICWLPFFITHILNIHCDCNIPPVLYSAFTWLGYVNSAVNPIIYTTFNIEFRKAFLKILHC
For assay [7], the target named is α1-adrenoceptor. Kind of assay: ADRA1 receptor binding assay ([3H]-prazosin, rat cortex). The settings on record: read-out: Ki ± SEM α1.
Assay [8] deals with human norepinephrine transporter (Homo sapiens, UniProt P23975). Nature of the assay: NET binding assay ([3H]-nisoxetine, MDCK membranes).
Sequence of human norepinephrine transporter (P23975 whole entry): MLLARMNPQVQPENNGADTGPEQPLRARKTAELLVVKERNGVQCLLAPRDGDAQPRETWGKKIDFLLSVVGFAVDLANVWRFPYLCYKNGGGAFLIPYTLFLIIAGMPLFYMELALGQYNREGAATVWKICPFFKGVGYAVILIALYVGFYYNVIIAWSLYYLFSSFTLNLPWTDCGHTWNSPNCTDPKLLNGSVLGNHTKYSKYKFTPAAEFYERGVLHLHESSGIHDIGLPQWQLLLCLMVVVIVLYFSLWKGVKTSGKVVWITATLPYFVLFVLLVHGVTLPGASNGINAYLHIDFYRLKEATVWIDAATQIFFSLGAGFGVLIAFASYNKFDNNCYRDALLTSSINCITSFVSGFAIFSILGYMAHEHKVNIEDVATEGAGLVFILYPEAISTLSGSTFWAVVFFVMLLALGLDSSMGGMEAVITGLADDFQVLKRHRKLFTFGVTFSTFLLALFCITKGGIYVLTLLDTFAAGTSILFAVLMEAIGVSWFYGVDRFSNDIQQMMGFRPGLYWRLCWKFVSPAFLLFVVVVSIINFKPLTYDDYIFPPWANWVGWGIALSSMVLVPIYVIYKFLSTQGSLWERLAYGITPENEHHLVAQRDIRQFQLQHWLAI
Protocol: We performed radioligand binding assays using membranes from CHO-K1 cells stably transfected with human DAT and membranes from MDCK cells stably transfected with human NET. This was accomplished by assessing the displacement of [^3H]-WIN35,428 and [^3H]-nisoxetine from cloned human DAT and NET, respectively.
(§6) Ten-micromolar stock solutions of tested compounds were prepared in DMSO. […] Each compound was tested in a screening assay at final concentrations of 10 µM and 1 µM. Results were expressed as percent inhibition of radioligand binding. Reference compounds were tested in 8 concentrations from 10^−5 to 10^−12 M (final concentration).
Radioligand binding was performed using membranes from MDCK cells stably transfected with the human norepinephrine transporter (PerkinElmer, Waltham, MA, USA). All assays were carried out in duplicates. Measures of 50 µL of working solution of the tested compounds, 50 µL of [^3H]-nisoxetine (final concentration 4 nM) and 150 µL of diluted membranes (3 µg protein per well) prepared in assay buffer (50 mM Tris-HCl, pH 7.4, 120 mM NaCl; 5 mM KCl) were transferred to a polypropylene 96-well microplate using the 96-well pipetting station Rainin Liquidator (MettlerToledo, Beverly, MA, USA). […] The microplate was covered with sealing tape, mixed and incubated for 60 min at 4 °C. The reaction was terminated by rapid filtration through GF/C filter mate pre-soaked with 0.5% polyethyleneimine for 30 min. Ten rapid washes with 200 µL of 50 mM Tris buffer (4 °C, pH 7.4) were performed using the automated harvester system Harvester-96 MACH III FM (Tomtec, Hamden, CT, USA). […] Radioactivity was counted using a MicroBeta2 scintillation counter (PerkinElmer, Turku, Finland). Data were fitted to a one-site curve-fitting equation with Prism 5 (GraphPad Software), and Ki values were estimated using the Cheng–Prusoff equation.
The target in assay [9] is human dopamine transporter (Homo sapiens, UniProt Q01959). Kind of assay: DAT binding assay ([3H]-WIN 35,428, CHO-K1 membranes).
Sequence of human dopamine transporter (Q01959 whole entry): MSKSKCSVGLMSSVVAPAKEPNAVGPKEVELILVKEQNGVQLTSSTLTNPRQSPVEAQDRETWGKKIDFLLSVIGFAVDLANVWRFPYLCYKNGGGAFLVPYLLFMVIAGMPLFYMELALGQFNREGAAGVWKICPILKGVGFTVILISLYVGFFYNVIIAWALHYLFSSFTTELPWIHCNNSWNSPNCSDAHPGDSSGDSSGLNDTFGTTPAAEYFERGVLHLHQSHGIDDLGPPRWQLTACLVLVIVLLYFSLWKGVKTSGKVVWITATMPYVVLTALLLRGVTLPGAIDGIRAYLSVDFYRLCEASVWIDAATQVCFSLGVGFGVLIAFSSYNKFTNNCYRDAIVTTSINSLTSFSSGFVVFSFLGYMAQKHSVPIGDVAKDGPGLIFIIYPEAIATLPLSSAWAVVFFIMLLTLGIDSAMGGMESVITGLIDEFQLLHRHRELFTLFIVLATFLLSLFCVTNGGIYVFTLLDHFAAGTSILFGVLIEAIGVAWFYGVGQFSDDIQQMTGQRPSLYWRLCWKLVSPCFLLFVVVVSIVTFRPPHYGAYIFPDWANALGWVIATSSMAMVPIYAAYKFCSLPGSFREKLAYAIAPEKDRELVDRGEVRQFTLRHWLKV
Protocol: as §6
Radioligand binding was performed using membranes from CHO-K1 cells stably transfected with the human dopamine transporter (PerkinElmer, Waltham, MA, USA). All assays were carried out in duplicates. […] The microplate was covered with sealing tape, mixed and incubated for 120 min at 4 °C. The reaction was terminated by rapid filtration through GF/C filter mate pre-soaked with 0.5% polyethyleneimine for 30 min. Ten rapid washes with 200 µL of 50 mM Tris buffer (4 °C, pH 7.4) were performed using the automated harvester system Harvester-96 MACH III FM (Tomtec, Hamden, CT, USA). […] Radioactivity was counted using a MicroBeta2 scintillation counter (PerkinElmer, Turku, Finland). Data were fitted to a one-site curve-fitting equation with Prism 5 (GraphPad Software), and Ki values were estimated using the Cheng–Prusoff equation.
Assay [10] concerns the target T1, human 5-HT1A receptor. The settings on record: previously described 1H-indole analogues; read-out: Ki ± SEM 5-HT1A; cited from earlier work.
For assay [11], the target named is T2, human serotonin transporter. As to conditions: previously described 1H-indole analogues; read-out: Ki ± SEM SERT; cited from earlier work.

T2 sequence (P31645 whole entry): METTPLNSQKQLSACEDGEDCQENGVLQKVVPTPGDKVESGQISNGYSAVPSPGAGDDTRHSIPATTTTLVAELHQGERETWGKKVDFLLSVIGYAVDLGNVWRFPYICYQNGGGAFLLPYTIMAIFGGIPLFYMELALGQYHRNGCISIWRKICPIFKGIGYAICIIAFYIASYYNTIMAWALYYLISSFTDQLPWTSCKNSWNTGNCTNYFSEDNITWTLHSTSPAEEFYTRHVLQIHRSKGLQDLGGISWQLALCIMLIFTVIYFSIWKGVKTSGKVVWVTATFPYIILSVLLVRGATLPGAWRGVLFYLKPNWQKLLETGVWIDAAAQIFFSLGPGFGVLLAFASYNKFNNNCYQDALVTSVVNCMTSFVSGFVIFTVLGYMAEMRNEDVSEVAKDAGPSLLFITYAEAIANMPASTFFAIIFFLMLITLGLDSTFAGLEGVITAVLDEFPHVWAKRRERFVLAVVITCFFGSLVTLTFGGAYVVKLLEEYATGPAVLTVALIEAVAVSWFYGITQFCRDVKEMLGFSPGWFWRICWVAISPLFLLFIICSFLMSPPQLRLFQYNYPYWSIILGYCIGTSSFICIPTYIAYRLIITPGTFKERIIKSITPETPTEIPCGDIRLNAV

For `O=C1CC(c2c[nH]c3ccccc23)C(=O)N1CCCCN1CC=C(c2c[nH]c3ncccc23)CC1` (stereo not drawn) [Compound 4, 1-(4-(4-(1H-Pyrrolo[2,3-b]pyridin-3-yl)-3,6-dihydropyridin-1(2H)-yl)butyl)-3-(1H-indol-3-yl)pyrrolidine-2,5-dione], the inhibitory constant (Ki) in [1] stood at 0.66 ± 0.0602 µM; in assay [2], 0.047 ± 0.005 µM; in [3], 1.4 ± 0.071 µM; in assay [4], 1.69 ± 0.186 µM; in assay [5], 1.42 ± 0.172 µM; in [6], 0.078 ± 0.007 µM. Further, the Ki in [7] is 0.087 ± 0.002 µM; in [8] it was 0.167 ± 0.0138 µM. In [8] (ratio of Ki values), the “Selectivity Ratio hNET/hSERT” value turned out to be 3.5.
Regarding `COc1ccc2[nH]cc(C3CC(=O)N(CCCN4CC=C(c5c[nH]c6ncccc56)CC4)C3=O)c2c1` (stereo not drawn) [Compound 8, 1-(3-(4-(1H-Pyrrolo[2,3-b]pyridin-3-yl)-3,6-dihydropyridin-1(2H)-yl)propyl)-3-(5-methoxy-1H-indol-3-yl)pyrrolidine-2,5-dione], the Ki stood at 0.023 ± 0.0028 µM in assay [2]; 0.727 ± 0.043 µM in assay [3]; 2.97 ± 0.138 µM in [4]; 1.53 ± 0.076 µM in [5]; 0.265 ± 0.0065 µM in assay [7]; 0.663 ± 0.015 µM in assay [9]. The “hNET screening procedure, displacement %” value in [8] (at 1 µM) is reported as 43% ^a.
`O=C1CC(c2c[nH]c3ccc(F)cc23)C(=O)N1CCCN1CC=C(c2c[nH]c3ncccc23)CC1` (stereo not drawn) [Compound 11, 1-(3-(4-(1H-Pyrrolo[2,3-b]pyridin-3-yl)-3,6-dihydropyridin-1(2H)-yl)propyl)-3-(5-fluoro-1H-indol-3-yl)pyrrolidine-2,5-dione]: the inhibition constant Ki in [1] amounted to 0.128 µM; in assay [2], 0.0092 ± 0.0006 µM; in [3], 1.16 ± 0.096 µM; in [4], 1.29 ± 0.147 µM; in assay [5] it was 1.13 ± 0.089 µM; in assay [6], 0.051 ± 0.006 µM. The inhibition constant Ki in assay [9] amounted to 0.288 ± 0.0252 µM. The “Selectivity Ratio hDAT/hSERT” value in [9] (ratio of Ki values) came to 31.3.
For `O=C1CC(c2c[nH]c3ccc(F)cc23)C(=O)N1CCCN1CC=C(c2c[nH]c3ccccc23)CC1` (stereo not drawn) [Compound 20], the Ki in assay [3] was 0.237 ± 0.017 µM; in [4], 0.257 ± 0.017 µM; in [5] it was 0.03 ± 0.004 µM; in assay [6], 0.056 ± 0.007 µM; in [10], 0.19 ± 0.0085 µM; in assay [11] it was 0.0015 ± 0.0002 µM.

Values taken from publication PMC11508649 (International Journal of Molecular Sciences, 2024).
